Laboratory results: patent publication US20120029187A1, “HALOALKYLSULFONANILIDE DERIVATIVE” (Nissan Chemical Industries, Ltd., priority 2009, published 2012)

Legend:
Format in all cases: in vivo
wild oat [1] = assay: Test Example 4: herbicidal effect in foliage treatment; details: dose 3.2 g/a, three weeks after application
How it was run: (§1)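 A uniform foliar spray of emulsifiable concentrate, diluted with water to give the stated g/a dose, was applied to plants raised for 14 days from seed in sterilized diluvial soil at 25 to 30° C. Herbicidal effects were scored three weeks later.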

large crabgrass [2] = assay: as above; details: dose 3.2 g/a, three weeks after application
How it was run: as §1

beadstraw = assay: as above; details: dose 3.2 g/a, three weeks after application
How it was run: as §1

giant foxtail [3] = assay: as above; details: dose 3.2 g/a, three weeks after application
How it was run: as §1

water foxtail [4] = assay: as above; details: dose 3.2 g/a, three weeks after application
How it was run: as §1

Italian ryegrass [5] = assay: as above; details: dose 3.2 g/a, three weeks after application
How it was run: as §1

barnyardgrass [6] = assay: as above; details: dose 3.2 g/a, three weeks after application
How it was run: as §1

common lambsquater [7] = assay: as above; details: dose 3.2 g/a, three weeks after application
How it was run: as §1

redroot pigweed [8] = assay: as above; details: dose 3.2 g/a, three weeks after application
How it was run: as §1

common ragweed [9] = assay: as above; details: dose 3.2 g/a, three weeks after application
How it was run: as §1

velvetleaf [10] = assay: as above; details: dose 3.2 g/a, three weeks after application
How it was run: as §1

common chickweed [11] = assay: as above; details: dose 3.2 g/a, three weeks after application
How it was run: as §1

posumbu knotweed = assay: as above; details: dose 3.2 g/a, three weeks after application
How it was run: as §1

ducksalad [12] = assay: Test Example 2: herbicidal effects during the vegetation period under submerged conditions; details: treatment during the vegetation period under submerged conditions; dose 2.52 g/a
How it was run: (§2)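 Barnyardgrass, bulrush and ducksalad were co-sown in alluvial soil flooded to 4 cm and grown in a greenhouse at 25 to 30° C. At the 1- or 2-leaf stage, water-diluted emulsifiable concentrates went onto the water surface at set doses (g/a). Herbicidal effect was scored three weeks later on a graded scale.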

barnyardgrass [13] = assay: as above; details: treatment during the vegetation period under submerged conditions; dose 2.52 g/a
How it was run: as §2

bulrush [14] = assay: as above; details: treatment during the vegetation period under submerged conditions; dose 2.52 g/a
How it was run: as §2

ducksalad [15] = assay: Test Example 1: herbicidal effects in preemergence treatment under submerged conditions; details: dose 2.52 g/a
How it was run: (§3)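 Alluvial soil was flooded to 4 cm, sown with barnyardgrass, bulrush and ducksalad, and planted with 2.5-leaf rice seedlings. On the seeding day, water-diluted emulsifiable concentrates were applied to the water surface at set doses (g/a). After three weeks in a 25 to 30° C. greenhouse, mortality was scored 0–5.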

barnyardgrass [16] = assay: as above; details: dose 2.52 g/a
How it was run: as §3

bulrush [17] = assay: as above; details: dose 2.52 g/a
How it was run: as §3

wild oat [18] = assay: Test Example 3: herbicidal effects in soil treatment; details: dose 3.2 g/a
How it was run: (§4)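 Seeds were sown in sterilized diluvial soil and covered with about 1.5 cm of soil. Compounds, formulated as emulsifiable concentrates and diluted with water, were sprayed evenly over the soil surface at set doses in g/a. Herbicidal effect was scored on a rating scale three weeks later.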

large crabgrass [19] = assay: as above; details: dose 3.2 g/a
How it was run: as §4

giant foxtail [20] = assay: as above; details: dose 3.2 g/a
How it was run: as §4

water foxtail [21] = assay: as above; details: dose 3.2 g/a
How it was run: as §4

Italian ryegrass [22] = assay: as above; details: dose 3.2 g/a
How it was run: as §4

barnyardgrass [23] = assay: as above; details: dose 3.2 g/a
How it was run: as §4

common lambsquater [24] = assay: as above; details: dose 3.2 g/a
How it was run: as §4

redroot pigweed [25] = assay: as above; details: dose 3.2 g/a
How it was run: as §4

common ragweed [26] = assay: as above; details: dose 3.2 g/a
How it was run: as §4

velvetleaf [27] = assay: as above; details: dose 3.2 g/a
How it was run: as §4

common chickweed [28] = assay: as above; details: dose 3.2 g/a
How it was run: as §4

transplanted rice = assay: Test Example 1: preemergence treatment under submerged conditions, effect on crop; details: dose 2.52 g/a
How it was run: as §3

Compound | F: wild oat, herbicidal effect (wild oat [1]) | D: large crabgrass, herbicidal effect (large crabgrass [2]) | O: beadstraw, herbicidal effect (beadstraw) | E: giant foxtail, herbicidal effect (giant foxtail [3]) | G: water foxtail, herbicidal effect (water foxtail [4]) | H: Italian ryegrass, herbicidal effect (Italian ryegrass [5]) | A: barnyardgrass, herbicidal effect (barnyardgrass [6]) | L: common lambsquater, herbicidal effect (common lambsquater [7]) | K: redroot pigweed, herbicidal effect (redroot pigweed [8]) | J: common ragweed, herbicidal effect (common ragweed [9]) | I: velvetleaf, herbicidal effect (velvetleaf [10]) | N: common chickweed, herbicidal effect (common chickweed [11]) | M: posumbu knotweed, herbicidal effect (posumbu knotweed) | C: ducksalad, herbicidal effect (evaluation scale 0-5) (ducksalad [12]) | A: barnyardgrass, herbicidal effect (evaluation scale 0-5) (barnyardgrass [13]) | B: bulrush, herbicidal effect (evaluation scale 0-5) (bulrush [14]) | C: ducksalad, herbicidal effect (evaluation scale 0-5) (ducksalad [15]) | A: barnyardgrass, herbicidal effect (evaluation scale 0-5) (barnyardgrass [16]) | B: bulrush, herbicidal effect (evaluation scale 0-5) (bulrush [17]) | F: wild oat, herbicidal effect (evaluation scale 0-5) (wild oat [18]) | also measured
CC1(C)CN(Cc2ccccc2NS(=O)(=O)C(F)(F)F)C(=O)CO1 [Compound I-15] | 1 (mortality of at least 5% and less than 20%) | 4 (mortality of at least 70% and less than 90%) | 4 (mortality of at least 70% and less than 90%) | 4 (mortality of at least 70% and less than 90%) | 5 (mortality of 90% or above (nearly complete death)) | 4 (mortality of at least 70% and less than 90%) | 5 (mortality of 90% or above (nearly complete death)) | 3 (mortality of at least 40% and less than 70%) | 3 (mortality of at least 40% and less than 70%) | 4 (mortality of at least 70% and less than 90%) | 5 (mortality of 90% or above (nearly complete death)) | 4 (mortality of at least 70% and less than 90%) | 4 (mortality of at least 70% and less than 90%) | 5 (mortality of 90% or above (nearly complete death)) | 5 (mortality of 90% or above (nearly complete death)) | 5 (mortality of 90% or above (nearly complete death)) | 5 (mortality of 90% or above (nearly complete death)) | 5 (mortality of 90% or above (nearly complete death)) | 5 (mortality of 90% or above (nearly complete death)) | 3 (mortality of at least 40% and less than 70%) | D: large crabgrass, herbicidal effect (evaluation scale 0-5) (large crabgrass [19]): 5 (mortality of 90% or above (nearly complete death)); E: giant foxtail, herbicidal effect (evaluation scale 0-5) (giant foxtail [20]): 3 (mortality of at least 40% and less than 70%); G: water foxtail, herbicidal effect (evaluation scale 0-5) (water foxtail [21]): 5 (mortality of 90% or above (nearly complete death)); H: Italian ryegrass, herbicidal effect (evaluation scale 0-5) (Italian ryegrass [22]): 5 (mortality of 90% or above (nearly complete death)); A: barnyardgrass, herbicidal effect (evaluation scale 0-5) (barnyardgrass [23]): 5 (mortality of 90% or above (nearly complete death)); L: common lambsquater, herbicidal effect (evaluation scale 0-5) (common lambsquater [24]): 4 (mortality of at least 70% and less than 90%); K: redroot pigweed, herbicidal effect (evaluation scale 0-5) (redroot pigweed [25]): 5 (mortality of 90% or above (nearly complete death)); J: common ragweed, herbicidal effect (evaluation scale 0-5) (common ragweed [26]): 5 (mortality of 90% or above (nearly complete death)); I: velvetleaf, herbicidal effect (evaluation scale 0-5) (velvetleaf [27]): 5 (mortality of 90% or above (nearly complete death)); N: common chickweed, herbicidal effect (evaluation scale 0-5) (common chickweed [28]): 4 (mortality of at least 70% and less than 90%); a: transplanted rice, effect on crop (evaluation scale 0-5) (transplanted rice): 1 (mortality of at least 5% and less than 20%)
CC(C)COC(=O)N(c1ccccc1CN1COC(c2ccccc2)CC1=O)S(=O)(=O)C(F)(F)F (centres unmarked) [II-13] | 0 (mortality of less than 5% (almost ineffective)) | 2 (mortality of at least 20% and less than 40%) | 4 (mortality of at least 70% and less than 90%) | 0 (mortality of less than 5% (almost ineffective)) | 0 (mortality of less than 5% (almost ineffective)) | 0 (mortality of less than 5% (almost ineffective)) | 2 (mortality of at least 20% and less than 40%) | 0 (mortality of less than 5% (almost ineffective)) | 0 (mortality of less than 5% (almost ineffective)) | 4 (mortality of at least 70% and less than 90%) | 0 (mortality of less than 5% (almost ineffective)) | 3 (mortality of at least 40% and less than 70%) | 1 (mortality of at least 5% and less than 20%) | 5 (mortality of 90% or above (nearly complete death)) | 5 (mortality of 90% or above (nearly complete death)) | 5 (mortality of 90% or above (nearly complete death)) | 5 (mortality of 90% or above (nearly complete death)) | 5 (mortality of 90% or above (nearly complete death)) | 5 (mortality of 90% or above (nearly complete death)) | 0 (mortality of less than 5% (almost ineffective)) | D: large crabgrass, herbicidal effect (evaluation scale 0-5) (large crabgrass [19]): 2 (mortality of at least 20% and less than 40%); E: giant foxtail, herbicidal effect (evaluation scale 0-5) (giant foxtail [20]): 4 (mortality of at least 70% and less than 90%); G: water foxtail, herbicidal effect (evaluation scale 0-5) (water foxtail [21]): 0 (mortality of less than 5% (almost ineffective)); H: Italian ryegrass, herbicidal effect (evaluation scale 0-5) (Italian ryegrass [22]): 0 (mortality of less than 5% (almost ineffective)); A: barnyardgrass, herbicidal effect (evaluation scale 0-5) (barnyardgrass [23]): 3 (mortality of at least 40% and less than 70%); L: common lambsquater, herbicidal effect (evaluation scale 0-5) (common lambsquater [24]): 0 (mortality of less than 5% (almost ineffective)); K: redroot pigweed, herbicidal effect (evaluation scale 0-5) (redroot pigweed [25]): 0 (mortality of less than 5% (almost ineffective)); J: common ragweed, herbicidal effect (evaluation scale 0-5) (common ragweed [26]): 0 (mortality of less than 5% (almost ineffective)); I: velvetleaf, herbicidal effect (evaluation scale 0-5) (velvetleaf [27]): 0 (mortality of less than 5% (almost ineffective)); N: common chickweed, herbicidal effect (evaluation scale 0-5) (common chickweed [28]): 0 (mortality of less than 5% (almost ineffective)); a: transplanted rice, effect on crop (evaluation scale 0-5) (transplanted rice): 0 (mortality of less than 5% (almost ineffective))
